Several values for one entry are separate records, joined by “and”; a condition that tells them apart may be missing. Equal values may be shown once.
Experiments:
L-type calcium channel = assay: IC50 with respect to the L-type calcium channel; type: biochemical
[1] = system: MK-801 binding site in the NMDA channel; assay: [3H]MK-801 displacement binding in homogenate in the presence of NMDA and Gly; settings: for displacement of [3H]MK-801: NMDA (100 μM) and Gly (100 μM), 5 nM [3H]MK-801, relative to total binding; for Hill slope value: dose-response of [3H]MK-801 binding
Protocol: Now referring to FIG. 3, an example graph 300 that illustrates that at least a subset of the compounds described above have an affinity for the MK-801 binding site in the NMDA channel is presented. More particularly, some triquinylamine compounds may have an affinity for the MK-801 binding site in the NMDA channel. The triquinane-derived azatricycloundecane compounds 100, 102, 108, 116, and 118 (FIGS. 1a, 1b, 1e, 1i, and 1j, respectively) were tested for an ability to displaced labeled MK-801, and the results of such testing are shown in FIG. 3. The graph 300 also illustrates total binding of radiolabeled MK-801 (Total) and non-specific binding of unlabelled MK-801 (NS). […] Specific [^3H]MK-801 binding to the homogenate can be estimated by subtracting non-specific binding (NS) obtained in the presence of 100 μM unlabeled MK-801 from the total binding. Specific binding represented 75% of the total binding and non-specific binding only 25% of total binding at 5 nM [^3H]MK-80 1. Unlabeled MK-80 1 used to determine the non-specific binding also served as a reference compound. NMDA-stimulated displacement for each tested compound was calculated as the difference between the measured value for the labeled MK-801 in the presence of each test compound, and the total binding, although the purpose of the graph 300 represents only the non-specific binding for that particular compound. The compound 118 displaced [^3H]MK-801 by 41.09±4.1%. For the compounds 116, 108, 100, and 102, respectively, there was no statistically significant displacement of [^3H]MK-801, and displacement values were calculated to be 16.93±4.1%, 14.35±7.9%, 20.85±11.7%, and 9.28±6.17%, respectively. Statistical significance compared to total binding in a t-test is (*) p<0.05, (**) p<0.001.
Referring now to FIG. 4, an example graph 400 that illustrates dose-dependent effect of compound 118 shown in FIG. 1j on [^3H]MK-801 binding in the presence of NMDA (100 μM) and Gly (100 μM). More particularly, the graph 400 depicts results of a dose-response curve fitting that was performed to determine the IC50 value for the compound 118. […] The Hill slope values for compounds with high-affinity as NMDA antagonists (MK-801, Memantine, and NGP1-01) are near unity, with lower potency compounds having greater Hill slop values. The Hill slope value for the compound 118 was −1.157±0.052.

Row | Compound | IC50 (L-type calcium channel) | Hill slope value [1] | other results
1 | CCCCCCCN1CCC2CC3CCCC3C21 (centres unmarked) [compound 122, N-heptyl-3,1-azatricyclo[6.3.0.0^2,6]undecane] | 55 µM |  | 
2 | N-benzyl-3,11-azatricyclo[6.3.0.0^2,6]undecane [compound 118] |  | −1.157±0.052 | displacement of [3H]MK-801 [1]: 41.09±4.1%; affinity for the NMDAR (comparison among triquinane-derived compounds) ([1]; among compounds 100, 102, 108, 116 and 118): highest affinity; IC50 ([1]; in the presence of NMDA (100 μM) and Gly (100 μM), dose-response curve fitting): 1.93 ± 0.018 µM
3 | c1ccc(CCNC23OC4C5C6CC(C7C6C4C72)C53)cc1 (centres unmarked) [compound 112, 8-phenylethylamino-8,11-oxapentacyclo[5.4.0.0^2,6.0^3,10.0^5,9]undecane] | 36.4 µM and 36.9 µM |  | 
4 | N-cyclohexylmethyl-3,11-azatricyclo[6.3.0.0^2,6]undecane [compound 116] | 46 µM and 53 µM |  | displacement of [3H]MK-801 [1]: 16.93±4.1%
5 | N-(pyridin-4-ylmethyl)-3,11-azatricyclo[6.3.0.0^2,6]undecane [compound 102] | 4.9 µM |  | displacement of [3H]MK-801 [1]: 9.28±6.17%
6 | C[C@]12N[C@H](Cc3ccccc31)c1ccccc12 [MK-801, reference compound] |  | near unity | 
7 | c1ccc(CNC23OC4C5C6CC(C7C6C4C72)C53)cc1 (centres unmarked) [compound 120, 8-benzylamino-8,11-oxapentacyclo[5.4.0.0^2,6.0^3,10.0^5,9]undecane] | 60 µM | near unity | 
8 | CCCCCCCN1C2C3C4CC5C6C4C2C6C1(O)C53 (centres unmarked) [compound 106, N-heptyl-4-azahexacyclo[5.4.1.0^2,6.0.0^5,9.0^8,11]dodecan-3-ol] | 7.5 µM |  | 
9 | N-benzyl-4-azahexacyclo[5.4.1.0^2,6.0.0^5,9.0^8,11]dodecan-3-ol [compound 110] | 32.9 µM |  | 
10 | OC12C3C4CC5C6C4C1C6C(C53)N2CCc1ccccc1 (centres unmarked) [compound 104, N-phenylethyl-4-azahexacyclo[5.4.1.0^2,6.0.0^5,9.0^8,11]dodecan-3-ol] | 6.8 µM |  | 
11 | CC12CC3CC(C)(C1)CC(N)(C3)C2 [Memantine, reference compound] |  | near unity | 

Source: patent publication US20090143457A1, “POLYCYCLIC COMPOUNDS FOR USE IN TREATING OCULAR NEURODEGENERATIVE DISEASES” (NORTHEASTERN OHIO UNIVERSITIES COLLEGE OF MEDICINE, priority 2007, published 2009)
